Source: patent US10011607B2, “Ethynyl derivatives” (Hoffmann-La Roche Inc., priority 2015, dated 2018)

Target: human mGlu4 receptor (Homo sapiens (Human), UniProt Q14833)
Experiment: Ca2+ mobilization in vitro assay on recombinant human mGlu4 expressed in HEK293 cells (PAM)
Format: cell-based
Conditions: for Emax: HEK293, maximal response in % of maximal stimulatory effect of saturating L-AP4, read-out: Eff. (%); for EC50: HEK293 cells, human mGlu4, in presence of EC20 of L-AP4, read-out: EC50 (nM) mGlu4PAM
Outline: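 HEK293 cells stably expressing human mGlu4 at low level, Fluo-4AM loaded; compound (11 half-log dilutions) pre-incubated 10–30 min at 37 °C, then L-AP4 added at EC20 (determined daily). Peak fluorescence minus basal, normalized to saturating L-AP4; EC50, Hill slope and % Emax from four-parameter fit.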

Sequence of human mGlu4 receptor (Q14833 33-912): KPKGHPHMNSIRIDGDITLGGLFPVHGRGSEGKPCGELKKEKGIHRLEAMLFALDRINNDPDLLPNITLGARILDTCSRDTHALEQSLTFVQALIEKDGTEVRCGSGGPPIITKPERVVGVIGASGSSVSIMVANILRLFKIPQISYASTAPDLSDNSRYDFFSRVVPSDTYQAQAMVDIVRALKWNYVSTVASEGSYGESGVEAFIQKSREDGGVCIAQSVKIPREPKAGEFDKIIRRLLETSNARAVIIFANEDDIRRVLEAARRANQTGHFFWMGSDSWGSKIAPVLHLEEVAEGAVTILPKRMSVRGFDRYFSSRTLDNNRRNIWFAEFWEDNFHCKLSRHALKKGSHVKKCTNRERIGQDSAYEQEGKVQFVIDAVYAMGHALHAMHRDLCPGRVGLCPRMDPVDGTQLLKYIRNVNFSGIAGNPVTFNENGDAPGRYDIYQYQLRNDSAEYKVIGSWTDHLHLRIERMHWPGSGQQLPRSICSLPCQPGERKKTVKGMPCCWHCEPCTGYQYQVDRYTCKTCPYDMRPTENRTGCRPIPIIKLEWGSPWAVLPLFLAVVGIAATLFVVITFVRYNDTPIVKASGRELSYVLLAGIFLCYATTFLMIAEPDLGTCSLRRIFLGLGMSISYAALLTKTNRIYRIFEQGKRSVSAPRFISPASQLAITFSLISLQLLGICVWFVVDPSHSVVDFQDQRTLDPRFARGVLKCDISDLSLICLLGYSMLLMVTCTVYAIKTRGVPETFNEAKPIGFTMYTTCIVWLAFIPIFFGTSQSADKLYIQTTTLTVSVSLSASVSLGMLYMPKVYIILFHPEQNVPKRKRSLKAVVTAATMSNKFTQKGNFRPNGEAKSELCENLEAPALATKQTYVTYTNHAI

| SMILES | Emax | EC50 |
| --- | --- | --- |
| O=C1C2CC(=O)N(c3c(F)cc(C#Cc4ccccc4)cc3F)C(=O)N2CCN1c1ccccn1 (racemic) [Example 3, (9aRS)-7-[2,6-difluoro-4-(2-phenylethynyl)phenyl]-2-(2-pyridyl)-3,4,9,9a-tetrahydropyrazino[1,2-c]pyrimidine-1,6,8-trione] | 116% | 235 nM |
| Cc1cnc(N2CCN3C(=O)N(c4c(F)cc(C#Cc5ccccc5)cc4F)C(=O)CC3(C)C2=O)s1 (racemic) [Example 53, (9aRS)-7-[2,6-difluoro-4-(2-phenylethynyl)phenyl]-9a-methyl-2-(5-methylthiazol-2-yl)-4,9-dihydro-3H-pyrazino[1,2-c]pyrimidine-1,6,8-trione] | 100% | 88 nM |
| Cn1ccc(N2CCN3C(=O)N(c4c(F)cc(C#Cc5ccccc5)cc4F)C(=O)C[C@@]3(C)C2=O)n1 [Example 63, (9aS)-7-[2,6-difluoro-4-(2-phenylethynyl)phenyl]-9a-methyl-2-(1-methylpyrazol-3-yl)-4,9-dihydro-3H-pyrazino[1,2-c]pyrimidine-1,6,8-trione] | 136% | 165 nM |
| Cc1ccccc1CN1CCN2C(=O)N(c3c(F)cc(C#Cc4ccccc4)cc3F)C(=O)CC2(C)C1=O (racemic) [Example 85, (9aRS)-7-[2,6-difluoro-4-(2-phenylethynyl)phenyl]-9a-methyl-2-(o-tolylmethyl)-4,9-dihydro-3H-pyrazino[1,2-c]pyrimidine-1,6,8-trione] | 83% | 205 nM |
| Cn1cc(CN2CCN3C(=O)N(c4c(F)cc(C#Cc5ccccc5)cc4F)C(=O)CC3(C)C2=O)cn1 (racemic) [Example 96, (9aRS)-7-[2,6-difluoro-4-(2-phenylethynyl)phenyl]-9a-methyl-2-[(1-methylpyrazol-4-yl)methyl]-4,9-dihydro-3H-pyrazino[1,2-c]pyrimidine-1,6,8-trione] | 151% | 214 nM |
| Cc1nccc(N2CCN3C(=O)N(c4c(F)cc(C#Cc5ccccc5)cc4F)C(=O)CC3(C)C2=O)n1 (racemic) [Example 30, (9aRS)-7-[2,6-difluoro-4-(2-phenylethynyl)phenyl]-9a-methyl-2-(2-methylpyrimidin-4-yl)-4,9-dihydro-3H-pyrazino[1,2-c]pyrimidine-1,6,8-trione] | 101% | 113 nM |
| Cc1cncc(N2CCN3C(=O)N(c4c(F)cc(C#Cc5ccccc5)cc4F)C(=O)CC3(C)C2=O)n1 (racemic) [Example 34, (9aRS)-7-[2,6-difluoro-4-(2-phenylethynyl)phenyl]-9a-methyl-2-(6-methylpyrazin-2-yl)-4,9-dihydro-3H-pyrazino[1,2-c]pyrimidine-1,6,8-trione] | 114% | 148 nM |
| COCCN1CCN2C(=O)N(c3c(F)cc(C#Cc4ccccc4)cc3F)C(=O)C[C@@]2(C)C1=O [Example 79, (9aS)-7-[2,6-difluoro-4-(2-phenylethynyl)phenyl]-2-(2-methoxyethyl)-9a-methyl-4,9-dihydro-3H-pyrazino[1,2-c]pyrimidine-1,6,8-trione] | 122% | 137 nM |
| Cc1ccnc(N2CCN3C(=O)N(c4c(F)cc(C#Cc5ccccc5)cc4F)C(=O)C[C@@]3(C)C2=O)c1 [Example 13, (9aS)-7-[2,6-difluoro-4-(2-phenylethynyl)phenyl]-9a-methyl-2-(4-methyl-2-pyridyl)-4,9-dihydro-3H-pyrazino[1,2-c]pyrimidine-1,6,8-trione] | 148% | 131 nM |
| CC12CC(=O)N(c3c(F)cc(C#Cc4ccccc4)cc3F)C(=O)N1CCN(Cc1ccccc1Cl)C2=O (racemic) [Example 87, (9aRS)-2-[(2-chlorophenyl)methyl]-7-[2,6-difluoro-4-(2-phenylethynyl)phenyl]-9a-methyl-4,9-dihydro-3H-pyrazino[1,2-c]pyrimidine-1,6,8-trione] | 131% | 87 nM |
